Measured values reported in publication PMC8428848, “Ancient role of sulfakinin/cholecystokinin-type signalling in inhibitory regulation of feeding processes revealed in an echinoderm” (eLife, 2021).
Where “and” joins values, the source holds several entries; their conditions need not be identical. Equal entries are not always repeated. Square brackets hold non-standard residues; d marks the D form. Peptide text beside a SMILES is read from it. sY = N[C@@H](Cc1ccc(OS(=O)(=O)O)cc1)C(=O)O; pGlu = O=C1CC[C@@H](C(=O)O)N1

Assays:
Asterias rubens [1] = test: In vivo feeding behaviour on mussels after injection; conditions: for time to touch (first contact with a mussel) / time to enclose (time to adopt a feeding posture): 10 nmol (10 µl of 1 mM) injected; for time to touch (first contact with a mussel) / time to enclose (time to adopt a feeding posture) / starfish proceeding to a feeding posture after the first touch: compared with water-injected controls; for time to enclose (time to adopt a feeding posture): p = 0.0523 ArSK/CCK1, p < 0.05 ArSK/CCK2; for starfish proceeding to a feeding posture after the first touch / number of advances to touch the mussel / number of starfish that did not initiate feeding within the 5 hr (300 min) observation period: 10 nmol injected; for starfish proceeding to a feeding posture after the first touch: Fisher's exact test; for number of advances to touch the mussel: data not shown; for number of starfish that did not initiate feeding within the 5 hr (300 min) observation period: n = 11 ArSK/CCK1, n = 19 ArSK/CCK2; for time to touch / time to enclose: individual animals
Description: Here, the same methods employed by [Tinoco et al., 2018] were used to investigate if ArSK/CCK1 and/or ArSK/CCK2 affect feeding behaviour in starfish. […] Then, starfish were fasted for 24 days and transferred to and kept individually in Plexiglas aquaria, as described previously ([Tinoco et al., 2018]). […] The time taken for starfish to make first contact with a mussel (tube feet touching the mussel or time to touch the mussel), the number of attempts to touch, as well as the time to enclose the mussel (indicated by a feeding posture) were recorded. Starfish that were feeding after 24 hr were included in data analysis and any starfish in the control or test group that had not fed on a mussel after 24 hr were discarded from data analysis.

ArSK/CCKR = molecular target: T1, ArSK/CCKR (Asterias rubens, UniProt A0A8F2ZGB9); test: Aequorin bioluminescence receptor assay in CHO-K1 cells (G5A) co-transfected with ArSK/CCKR and human Gα16; format: cell-based; conditions: for EC50: luminescence as % of maximal response, four to six independent transfections, two to three replicates each, 3 × 10^−17 to 10^−4 M
T1 sequence (A0A8F2ZGB9 1-434): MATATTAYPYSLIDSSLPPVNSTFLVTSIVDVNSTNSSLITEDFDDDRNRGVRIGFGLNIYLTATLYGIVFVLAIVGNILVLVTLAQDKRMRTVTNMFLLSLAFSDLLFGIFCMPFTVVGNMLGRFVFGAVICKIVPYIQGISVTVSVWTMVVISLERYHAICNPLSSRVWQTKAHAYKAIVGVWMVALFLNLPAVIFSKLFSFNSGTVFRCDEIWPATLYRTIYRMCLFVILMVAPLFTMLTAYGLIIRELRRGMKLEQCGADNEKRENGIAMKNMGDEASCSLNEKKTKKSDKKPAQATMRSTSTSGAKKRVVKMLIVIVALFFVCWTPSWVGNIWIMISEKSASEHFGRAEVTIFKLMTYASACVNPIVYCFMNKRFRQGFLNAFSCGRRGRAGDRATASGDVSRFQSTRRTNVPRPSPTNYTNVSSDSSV
Description: To enable testing of ArSK/CCK1 and ArSK/CCK2 as candidate ligands for ArSK/CCKR, a full-length cDNA encoding ArSK/CCKR was synthesized by GenScript (Piscataway, NJ) and cloned into pcDNA 3.1+ vector (Invitrogen, Thermo Fisher Scientific, Waltham, MA). A partial Kozak translation initiation sequence (CACC) was introduced upstream to the start codon (ATG). CHO-K1 cells stably expressing the mitochondrial targeted calcium-sensitive bioluminescent reporter GFP-aequorin fusion protein (G5A) ([Baubet et al., 2000]) were used as a heterologous expression system for ArSK/CCKR. These cells have been used previously for neuropeptide receptor deorphanisation ([Bauknecht and Jékely, 2015]) and were generously supplied to us by Dr Gáspár Jékely (University of Exeter). The cell line was generated using the CHO-K1 cell line from Sigma-Aldrich (85051005; RRID: CVCL_0214), which is certified by the European Collection of Authenticated Cell Cultures (ECACC), and expression of the GFP-aequorin fusion protein (G5A) in the cell line was determined by functionality in displaying calcium-activated luminescence. […] Cells were cultured, co-transfected with the pcDNA 3.1+ vector containing the ArSK/CCKR cDNA sequence and plasmids encoding the promiscuous human G-protein Gα16. Then bioluminescence-based receptor assays were performed, as described previously for A. rubens luqin-type receptors ([Yañez-Guerra et al., 2018]).
[…] Concentration-response data were determined as a percentage of the highest response for each peptide (100% activation). EC50 values were calculated from concentration-response curves based on four to six independent transfections and averaging two to three replicates in each transfection using Prism 6.0 (RRID:SCR_002798; GraphPad software, La Jolla, CA). Cells transfected with an empty vector were used for control experiments.

Asterias rubens [2] = test: In vivo retraction of the everted cardiac stomach after injection; conditions: for cardiac stomach retraction in vivo: injection of 10 nmol (10 μl of 1 mM) into perivisceral coelom, eversion induced with 2% MgCl2 in seawater, 6 min; for reduction in the area of cardiac stomach everted: within 360 s after injection of 10 mol (10 µl 1 mM), normalized to area at T0, n = 6 (ArSK/CCK1), 6 (ArSK/CCK2), 8 (ArSK/CCK2(ns))
Method: Therefore, experiments were performed to investigate if ArSK/CCK1 and ArSK/CCK2 also trigger cardiac stomach retraction in A. rubens. Twenty specimens of A. rubens, which had been withheld from a food supply for 1 week, were placed in a glass tank containing 2% magnesium chloride (MgCl2; Sigma-Aldrich, Gillingham, UK) dissolved in seawater, which acts as a muscle relaxant in marine invertebrates ([Mayer, 1909]). This treatment conveniently and reproducibly causes eversion of the cardiac stomach in A. rubens, typically within a period of ~30 min ([Semmens et al., 2013]). Hamilton 75 N 10 μl syringes (Sigma-Aldrich, Gillingham, UK) were used to inject test compounds into the perivisceral coelom of animals, inserting the needle through the aboral body wall of the arms proximal to the junctions with the central disk region. Care was taken to inject neuropeptides (ArSK/CCK1, ArSK/CCK2 and ArSK/CCK2(ns)) or distilled water (control) into the perivisceral coelom and not into the cardiac stomach. All animals were first injected with 10 μl of distilled water (control) and video-recorded for 6 min. The same animals were then injected with 10 μl of 1 mM peptide (10 nmol) and video-recorded for 6 min. Static images from video recordings were captured at 30 s intervals from the time of injection. Then the two-dimensional area of everted cardiac stomach was measured from the images using the ImageJ software (version 1.0; http://rsb.info.nih.gov/ij) and normalized as a percentage of the area of cardiac stomach everted at the time of injection (T0).

[3] = 10 µl of 1 mM peptide injected, n = 11
[4] = feeding experiments, count of animals
[5] = feeding experiments, percentage of animals

Compound	time to touch (first contact with a mussel) (Asterias rubens [1])	time to enclose (time to adopt a feeding posture) (Asterias rubens [1])	starfish proceeding to a feeding posture after the first touch (Asterias rubens [1])	number of advances to touch the mussel (Asterias rubens [1])	number of starfish that did not initiate feeding within the 5 hr (300 min) observation period (Asterias rubens [1])	EC50 (ArSK/CCKR) [nM]	cardiac stomach retraction in vivo (Asterias rubens [2])	reduction in the area of cardiac stomach everted (Asterias rubens [2])	other results
CC(C)C[C@H](NC(=O)CNC(=O)[C@H](Cc1c[nH]cn1)NC(=O)CNC(=O)[C@H](Cc1ccc(OS(=O)(=O)O)cc1)NC(=O)[C@H](CC(=O)O)NC(=O)[C@H](CC(=O)O)NC(=O)[C@@H](NC(=O)[C@H](CCCCN)NC(=O)[C@H](CO)NC(=O)[C@@H]1CCC(=O)N1)C(C)C)C(=O)N[C@@H](Cc1ccccc1)C(=O)N[C@@H](Cc1c[nH]c2ccccc12)C(N)=O [ArSK/CCK1] ([pGlu]SKVDD[sY]GHGLFW-NH2)	did not affect	only a tendency to an increased time to enclose	fewer	increased number of advances	four	0.25	triggered cardiac stomach retraction	> 50%	Number of animals, First touch success (Asterias rubens [1]; [3]): 4; Number of animals, Unsuccessful first touch (Asterias rubens [1]; [3]): 7; Percentage, First touch success (Asterias rubens [1]; [3]): 36 Percentage; Percentage, Unsuccessful first touch (Asterias rubens [1]; [3]): 64 Percentage; time to touch (Asterias rubens [1]; one line each, 10 µl of 1 mM peptide injected): 10 min and 16 min and 8 min and 4 min and 2 min and 23 min and 19 min and 6 min and 3 min and 22 min and 48 min; time to enclose (Asterias rubens [1]; one line each, 10 µl of 1 mM peptide injected, observation period 300 min): 215 min and 29 min and 4 min and 24 min and 10 min and 6 min and 144 min
CC(C)C[C@H](NC(=O)CNC(=O)[C@H](Cc1ccccc1)NC(=O)CNC(=O)[C@H](Cc1ccc(O)cc1)NC(=O)[C@H](CCC(N)=O)NC(=O)[C@H](CC(=O)O)NC(=O)[C@H](CC(=O)O)NC(=O)CNC(=O)CN)C(=O)N[C@@H](Cc1ccccc1)C(=O)N[C@@H](Cc1ccccc1)C(N)=O [ArSK/CCK2(ns)] (H-GGDDQYGFGLFF-NH2; N-terminus assumed)						48000	did not trigger cardiac stomach retraction	no effect	potency as ligand for ArSK/CCKR compared with ArSK/CCK1 and ArSK/CCK2 (ArSK/CCKR; from EC50 values): five to six orders of magnitude less potent
CC(C)C[C@H](NC(=O)CNC(=O)[C@H](Cc1ccccc1)NC(=O)CNC(=O)[C@H](Cc1ccc(OS(=O)(=O)O)cc1)NC(=O)[C@H](CCC(N)=O)NC(=O)[C@H](CC(=O)O)NC(=O)[C@H](CC(=O)O)NC(=O)CNC(=O)CN)C(=O)N[C@@H](Cc1ccccc1)C(=O)N[C@@H](Cc1ccccc1)C(N)=O [ArSK/CCK2] (H-GGDDQ[sY]GFGLFF-NH2; N-terminus assumed)	did not affect	higher	fewer	increased number of advances	two	0.12	triggered cardiac stomach retraction	> 50%	Number of animals, First touch success (Asterias rubens [1]; [4]): 12; Number of animals, Unsuccessful first touch (Asterias rubens [1]; [4]): 6; time to enclose (Asterias rubens [1]; feeding experiments): 11.3 min and 199.3 min and 190.75 min and 21 min and 27 min and 53 min and 49 min and 10 min and 237 min and 12 min and 17 min and 300 min and 77 min and 88 min and 22 min and 50 min and 8 min and 46 min; time to touch (Asterias rubens [1]; feeding experiments): 9 min and 6.9 min and 13.1 min and 13 min and 24 min and 49 min and 46 min and 6 min and 11 min and 7 min and 14 min and 36 min and 3 min and 18 min and 45 min and 4 min and 40 min; Percentage, First touch success (Asterias rubens [1]; [5]): 67%; Percentage, Unsuccessful first touch (Asterias rubens [1]; [5]): 33%
